The NIST ThermoML archive (doi:10.1021/je101317k)
± gives the expanded uncertainty stated by the source.

Key:
[1] = refractive index (other wavelength) (dimensionless); xn = mol fraction of the nth substance listed; conditions: 101 kPa, Liquid, Wavelength=632.8 nm, Standard Abbe refractometry
[2] = refractive index (other wavelength) (dimensionless); conditions: 101 kPa, Liquid, Wavelength=632.8 nm, Standard Abbe refractometry

For `CCCCCCCCC` [nonane] + COC(=O)OC, the refractive index ([1]; 281.69 K, x2 = 0) was 1.4095 ± 0.0004, the refractive index ([1]; 281.69 K, x2 = 0.105) was 1.4061 ± 0.0004 and the refractive index ([1]; 281.69 K, x2 = 0.201) was 1.4031 ± 0.0004. The refractive index ([1]; 281.69 K, x2 = 0.305) was 1.3999 ± 0.0004, the refractive index ([1]; 281.69 K, x2 = 0.405) was 1.3968 ± 0.0004 and the refractive index ([1]; 281.69 K, x2 = 0.505) was 1.3936 ± 0.0004. For the same molecule, the refractive index ([1]; 281.69 K, x2 = 0.596) was 1.3905 ± 0.0004, the refractive index ([1]; 281.69 K, x2 = 0.706) was 1.3863 ± 0.0004 and the refractive index ([1]; 281.69 K, x2 = 0.8) was 1.3822 ± 0.0004. It also gave a refractive index ([1]; 281.69 K, x2 = 0.888) of 1.3781 ± 0.0004.
`CCCCCCCCCCCC` [dodecane] showed a refractive index ([2]; 293.28 K) of 1.4203 ± 0.0004, a refractive index ([2]; 294.33 K) of 1.4198 ± 0.0004 and a refractive index ([2]; 295.37 K) of 1.4194 ± 0.0004. It also gave a refractive index ([2]; 296.54 K) of 1.4189 ± 0.0004, a refractive index ([2]; 297.58 K) of 1.4184 ± 0.0004 and a refractive index ([2]; 298.65 K) of 1.418 ± 0.0004. For the same molecule, the refractive index ([2]; 299.72 K) was 1.4175 ± 0.0004.
With `CCCCCCCCCCCC` [dodecane] + COC(=O)OC the refractive index ([1]; 299.73 K, x2 = 0.103) was 1.414 ± 0.0004, the refractive index ([1]; 299.73 K, x2 = 0.204) was 1.4106 ± 0.0004 and the refractive index ([1]; 299.73 K, x2 = 0.299) was 1.4071 ± 0.0004. It also gave a refractive index ([1]; 299.73 K, x2 = 0.409) of 1.4028 ± 0.0004, a refractive index ([1]; 299.73 K, x2 = 0.512) of 1.3983 ± 0.0004 and a refractive index ([1]; 299.73 K, x2 = 0.611) of 1.3934 ± 0.0004. It also gave a refractive index ([1]; 299.73 K, x2 = 0.713) of 1.3875 ± 0.0004, a refractive index ([1]; 299.73 K, x2 = 0.791) of 1.3823 ± 0.0004 and a refractive index ([1]; 299.73 K, x2 = 0.899) of 1.3739 ± 0.0004.
`COC(=O)OC` [dimethyl carbonate] + CCCCCCCCC gave a refractive index ([1]; 281.69 K, x1 = 1) of 1.3728 ± 0.0004.
Work on `COC(=O)OC` [dimethyl carbonate] yielded a refractive index ([2]; 277.78 K) of 1.3747 ± 0.0004, a refractive index ([2]; 278.13 K) of 1.3745 ± 0.0004 and a refractive index ([2]; 279.18 K) of 1.374 ± 0.0004. It also gave a refractive index ([2]; 280.25 K) of 1.3735 ± 0.0004, a refractive index ([2]; 280.74 K) of 1.3733 ± 0.0004 and a refractive index ([2]; 281.69 K) of 1.3728 ± 0.0004. It also gave a refractive index ([2]; 293.19 K) of 1.3676 ± 0.0004, a refractive index ([2]; 294.27 K) of 1.3671 ± 0.0004 and a refractive index ([2]; 295.3 K) of 1.3666 ± 0.0004. For the same molecule, the refractive index ([2]; 296.34 K) was 1.3661 ± 0.0004, the refractive index ([2]; 297.38 K) was 1.3656 ± 0.0004 and the refractive index ([2]; 298.4 K) was 1.3651 ± 0.0004. For the same molecule, the refractive index ([2]; 299.48 K) was 1.3647 ± 0.0004.
Work on `CCCCCCCCC` [nonane] yielded a refractive index ([2]; 277.15 K) of 1.4116 ± 0.0004, a refractive index ([2]; 278.19 K) of 1.4111 ± 0.0004 and a refractive index ([2]; 279.2 K) of 1.4106 ± 0.0004. It also gave a refractive index ([2]; 279.71 K) of 1.4104 ± 0.0004, a refractive index ([2]; 280.28 K) of 1.4101 ± 0.0004 and a refractive index ([2]; 281.69 K) of 1.4095 ± 0.0004.
